Test results published in patent US8476197B2, “Aminopropenoates as fungicides” (priority 2009, dated 2013).
Marks after values point to notes of the source that are not given here.

Details: pH 2.3

Compound | Log P
CCOC(=O)C(C#N)=C(NC(C)C)c1cccnc1Cl [Compound 823] | 2.54
COC(=O)C(C#N)=C(NC(C)C#N)c1cccnc1Cl (stereo not shown) [Compound 869] | 1.85

Same assay, conditions: pH 2.7

Compound | Log P
COC(=O)C(C#N)=C(NC(C)CC1CC1)c1cccnc1Cl (stereo not shown) [Compound 766] | 2.84^[a]
COC(=O)C(C#N)=C(NC(C)C1(Cl)CC1)c1cccnc1Cl (stereo not shown) [Compound 768] | 2.72^[a]
CCOC(=O)C(C#N)=C(NC(C)C1(Cl)CC1)c1sccc1C(F)(F)F (stereo not shown) [Compound 769] | 4.04^[a]
COC(=O)C(C#N)=C(NC(C)C1(Cl)CC1)c1sc(C)nc1C(F)(F)F (stereo not shown) [Compound 770] | 3.53^[a]
CCOC(=O)C(C#N)=C(NC(C)C1(Cl)CC1)c1sccc1Br (stereo not shown) [Compound 771] | 3.94^[a]
CCOC(=O)C(C#N)=C(NC(C)C1(Cl)CC1)c1sc(C)nc1C(F)(F)F (stereo not shown) [Compound 772] | 3.89^[a]
CCOC(=O)C(C#N)=C(NC(C)C1(Cl)CC1)c1ccsc1Br (stereo not shown) [Compound 774] | 3.92^[a]
COC(=O)C(C#N)=C(NC(C)(C)C)c1cccnc1Cl [Compound 775] | 2.31^[a]
CCOC(=O)/C(C#N)=C(\NC(C)(C)C)c1nc(SC)ncc1Br [Compound 776] | 3.82^[a]
COC(=O)C(C#N)=C(NCC#N)c1sc(C)nc1C(F)(F)F [Compound 787] | 2.01^[a]
CCOC(=O)C(C#N)=C(NCC#N)c1cn(C)nc1C(F)F [Compound 788] | 1.79^[a]
CCOC(=O)C(C#N)=C(NCC#N)c1sccc1Br [Compound 789] | 2.33^[a]
CCOC(=O)C(C#N)=C(NCC#N)c1sc(C)nc1C(F)(F)F [Compound 790] | 2.35^[a]
CCOC(=O)C(C#N)=C(NCC#N)c1ccsc1Br [Compound 791] | 2.32^[a]
COC(=O)C(C#N)=C(NC1CCC1)c1cccnc1Cl [Compound 793] | 2.34^[a]
CCOC(=O)C(C#N)=C(NC1CCC1)c1nc(Cl)ccc1Cl [Compound 794] | 3.58^[a]
CCOC(=O)C(C#N)=C(NC1CCC1)c1ncc(Cl)cc1Cl [Compound 795] | 3.67^[a]
CCOC(=O)C(C#N)=C(NC1CCC1)c1cnc(Cl)cc1Cl [Compound 796] | 3.55^[a]
CCOC(=O)C(C#N)=C(NC1CCC1)c1cc(Cl)ncc1Cl [Compound 797] | 3.55^[a]

Compound | Log P
CCOC(=O)C(C#N)=C(NC1CCC1)c1ccncc1Cl [Compound 798] | 2.84^[a]
CCOC(=O)C(C#N)=C(NC1CCC1)c1cccnc1C(F)F [Compound 799] | 2.76^[a]
CCOC(=O)C(C#N)=C(NC1CCC1)c1cnccc1C(F)(F)F [Compound 800] | 3.06^[a]
CCOC(=O)C(C#N)=C(NC1CCC1)c1cc(Cl)cc(Cl)n1 [Compound 801] | 3.79^[a]
CCOC(=O)C(C#N)=C(NC1CCC1)c1ccnc(Cl)c1Cl [Compound 802] | 3.52^[a]
CCOC(=O)C(C#N)=C(NC1CCC1)c1ccncc1Br [Compound 803] | 2.9^[a]
CCOC(=O)C(C#N)=C(NC1CCC1)c1ccncc1F [Compound 804] | 2.66^[a]
CCOC(=O)C(C#N)=C(NC1CCC1)c1ccncc1C(F)(F)F [Compound 805] | 3.6^[a]
COC(=O)C(C#N)=C(NC(C)C)c1cccnc1Cl [Compound 822] | 2.11^[a]
CCOC(=O)C(C#N)=C(NC(C)C)c1cccnc1Cl [Compound 823] | 2.66
CCOC(=O)C(C#N)=C(NC(C)CC)c1cc(C)oc1C (stereo not shown) [Compound 825] | 3.63^[a]
CCC(C)NC(=C(C#N)C(=O)OC)c1cccnc1Cl (stereo not shown) [Compound 826] | 2.55^[a]
CCOC(=O)C(C#N)=C(NC(C)CC)c1sccc1Br (stereo not shown) [Compound 827] | 3.76^[a]
CCOC(=O)C(C#N)=C(NC(C)CC)c1sccc1C(F)(F)F (stereo not shown) [Compound 829] | 3.83^[a]
CCC(C)NC(=C(C#N)C(=O)OC)c1sc(C)nc1C(F)(F)F (stereo not shown) [Compound 831] | 3.23^[a]
CCOC(=O)C(C#N)=C(NC(C)CC)c1cn(C)nc1C(F)F (stereo not shown) [Compound 833] | 2.82^[a]
CCOC(=O)C(C#N)=C(NC(C)CC)c1sc(C)nc1C(F)(F)F (stereo not shown) [Compound 835] | 3.59^[a]
CCCCCC(C)NC(=C(C#N)C(=O)OCC)c1sccc1Br (stereo not shown) [Compound 844] | 5.03^[a]
CCCCCC(C)NC(=C(C#N)C(=O)OCC)c1sccc1C(F)(F)F (stereo not shown) [Compound 847] | 5.05^[a]

Compound | Log P
CCCCCC(C)NC(=C(C#N)C(=O)OC)c1sc(C)nc1C(F)(F)F (stereo not shown) [Compound 850] | 4.41^[a]
CCCCCC(C)NC(=C(C#N)C(=O)OCC)c1cn(C)nc1C(F)F (stereo not shown) [Compound 853] | 3.94^[a]
CCCCCC(C)NC(=C(C#N)C(=O)OCC)c1sc(C)nc1C(F)(F)F (stereo not shown) [Compound 856] | 4.81^[a]
CCCCC[C@H](C)N/C(=C(/C#N)C(=O)OCC)c1ccsc1Br [Compound 861] | 4.94^[a]
CCCCCC(C)N/C(=C(/C#N)C(=O)OCC)c1ccsc1Br (stereo not shown) [Compound 862] | 4.99^[a]
CCCC(C)NC(=C(C#N)C(=O)OCC)c1cn(C)nc1C(F)F (stereo not shown) [Compound 864] | 3.19^[a]
CCCC(C)NC(=C(C#N)C(=O)OCC)c1sccc1C(F)(F)F (stereo not shown) [Compound 865] | 4.21^[a]
CCCC(C)NC(=C(C#N)C(=O)OC)c1sc(C)nc1C(F)(F)F (stereo not shown) [Compound 866] | 3.61^[a]
CCCC(C)NC(=C(C#N)C(=O)OCC)c1sccc1Br (stereo not shown) [Compound 867] | 4.16^[a]
CCCC(C)NC(=C(C#N)C(=O)OCC)c1sc(C)nc1C(F)(F)F (stereo not shown) [Compound 868] | 3.96^[a]
CCOC(=O)C(C#N)=C(NC(C)C1CCCCC1)c1cn(C)nc1C(F)F (stereo not shown) [Compound 872] | 3.92^[a]
CCOC(=O)C(C#N)=C(NC(C)C1CCCCC1)c1sccc1C(F)(F)F (stereo not shown) [Compound 873] | 5.11^[a]
COC(=O)C(C#N)=C(NC(C)C1CCCCC1)c1sc(C)nc1C(F)(F)F (stereo not shown) [Compound 874] | 4.46^[a]
CCOC(=O)C(C#N)=C(NC(C)C1CCCCC1)c1sccc1Br (stereo not shown) [Compound 875] | 5.11^[a]
CCOC(=O)C(C#N)=C(NC(C)C1CCCCC1)c1sc(C)nc1C(F)(F)F (stereo not shown) [Compound 876] | 4.86^[a]
CCOC(=O)C(C#N)=C(NC(C)C1CCCCC1)c1ccsc1Br (stereo not shown) [Compound 877] | 5.03^[a]
CCOC(=O)C(C#N)=C(NC(C)C1CC1)c1cc(C)oc1C (stereo not shown) [Compound 879] | 3.63^[a]
COC(=O)C(C#N)=C(NC(C)C1CC1)c1cccnc1Cl (stereo not shown) [Compound 880] | 2.58^[a]
CCOC(=O)C(C#N)=C(NC(C)C1CC1)c1cn(C)nc1C(F)F (stereo not shown) [Compound 882] | 2.88^[a]

Same assay, conditions: pH 7.5

Compound | Log P
CCOC(=O)C(C#N)=C(NC(C)CBr)c1cccnc1Cl (stereo not shown) [Compound 767] | 2.79
CCOC(=O)C(C#N)=C(NC(C)CC#N)c1cccnc1Cl (stereo not shown) [Compound 792] | 2.13
CCOC(=O)C(C#N)=C(NC(C)C)c1cccnc1Cl [Compound 823] | 2.53
COC(=O)C(C#N)=C(NC(C)C#N)c1cccnc1Cl (stereo not shown) [Compound 869] | 1.86
COC(=O)C(C#N)=C(N[C@@H](C)C1CCCCC1)c1cccnc1Cl [Compound 870] | 3.76
COC(=O)C(C#N)=C(N[C@H](C)C1CCCCC1)c1cccnc1Cl [Compound 871] | 3.76
CCOC(=O)C(C#N)=C(NC(C)C1CC1)c1cccnc1Cl (stereo not shown) [Compound 878] | 2.93
CCOC(=O)C(C#N)=C(NC(C)C1CC1)c1ccc(C)nc1Cl (stereo not shown) [Compound 881] | 3.32
